From US20240317686A1, “RORyT MODULATOR, AND PREPARATION METHOD THEREFOR AND APPLICATION THEREOF” (SHANGHAI PHARMACEUTICALS HOLDING CO., LTD., priority 2020, published 2024)

Molecular target: T1, RORγt (Homo sapiens, UniProt P51449)
T1 construct: Prepare 4×RORgt-LBD in 1× buffer
T1 sequence (P51449 269-508 limits assumed): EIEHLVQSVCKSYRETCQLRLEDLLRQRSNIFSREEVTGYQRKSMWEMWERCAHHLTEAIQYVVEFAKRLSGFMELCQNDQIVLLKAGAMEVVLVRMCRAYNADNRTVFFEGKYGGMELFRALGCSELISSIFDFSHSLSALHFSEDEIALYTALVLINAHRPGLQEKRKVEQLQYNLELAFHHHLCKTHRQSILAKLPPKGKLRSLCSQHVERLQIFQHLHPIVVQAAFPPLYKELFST
Experiment: Fluorescence resonance energy transfer (FRET) assay of inhibitory activity on RORγt
Type: biochemical
Settings: RORgt-LBD GST with SRC peptide
Experimental: Fluorescence resonance energy transfer (FRET) experiment was performed to assay the inhibitory activity of the compound of the present invention on RORγt.
1) Preparation of DMSO stock solutions of the compounds: All compounds were dissolved in DMSO to prepare 10 mM stock solutions.
2) Compound storage: After the compound was dissolved in DMSO, the solution can be stored in a desiccator at room temperature for three months. For long-term storage, the solution should be put in a −20° C. refrigerator.
3) Preparation of working solution: • a) Positive control compound AZD0284: Starting from 500 µM, the solution was diluted serially by 3-folds with DMSO to obtain a 10-concentration gradient, each concentration with 3 replicate wells. 2 wells were pipetted. The gradiently diluted compound was diluted in a reaction buffer to obtain a 4× working solution (starting from 40 μM, diluted gradiently by 3-folds) of the positive control compound. • b) Compounds to be tested: Starting from 500 μM, the solution was diluted serially by 3-folds with DMSO to obtain a 10-concentration gradient, each concentration with 3 replicate wells. 2 wells were pipetted. The gradiently diluted compound was diluted in a reaction buffer to obtain a 4× working solution ([…], diluted gradiently by 3-folds) of the compounds to be tested. • c) Prepare a 4× negative control (8% DMSO). • d) Centrifuge the plate at 1000 rpm for 1 min.
1) Prepare 4× serially diluted compounds in 1× buffer.
2) Add 5 μl of the 4× serially diluted compound (prepared in step 1) to a 384 assay plate (784075, Greiner).
3) Prepare 4×RORgt-LBD in 1× buffer.
4) Add 5 μl of the 4×RORgt-LBD (prepared in step 3) to the 384 assay plate (prepared in step 2).
5) Incubate the assay plate for 15 min at room temperature, protected from light.
6) Prepare a 2× mixture of SRC, anti-GST Eu and streptavidin-d2 in 1× […].
7) Add 10 μl of the 2× mixture (prepared in step 6) to the 384 assay plate (prepared in step 4).
8) Centrifuge the 384 assay plates at 1000 g for 1 min.
9) Incubate for 3 h at room temperature, protected from light.
10) Read the plate at wavelengths of 665 nm and 615 nm on an Envision 2104 plate reader.
Relative ratio (RR): Calculate the relative ratio (response value at 665 nm/response value at 615 nm-response value in blank background) of each well.
Inhibition rate %=[1−(fluorescence detection value of the compound−fluorescence detection average of the positive compound)/(fluorescence detection average of the negative control−fluorescence detection average of the positive compound)]×100
Calculate the IC50 and dose-response curve of the compound: The IC50 and dose-response curve of the compound were obtained via Graphpad 8.0 by calculating the inhibition rate of the compound and the log value of the compound concentration.

Compound	IC50
CCS(=O)(=O)c1ccc(CC(=O)Nc2ccc(C(=O)C(C)(C)c3cccc(Cl)c3)nc2)cc1 [Compound I-1, N-[6-[2-(3-chlorophenyl)-2-methyl-propionyl]-3-pyridyl]-2-(4-ethylsulfonylphenyl)acetamide]	0.001 to 0.01 µM
CCS(=O)(=O)c1ccc(CC(=O)Nc2ccc(C(=O)C(C)(C)c3ccc(Cl)cc3)cn2)cc1 [Compound I-2, N-[5-[2-(4-chlorophenyl)-2-methyl-propionyl]-2-pyridyl]-2-(4-ethylsulfonylphenyl)acetamide]	0.01 to 0.05 µM
CCS(=O)(=O)c1ccc(CC(=O)Nc2ccc(C(=O)C(C)(C)c3ccc(Cl)cc3)nc2)cc1 [Compound I-3, N-[6-[2-(4-chlorophenyl)-2-methylpropionyl]-3-pyridyl]-2-(4-ethylsulfonylphenyl)acetamide]	0.01 to 0.05 µM
CCS(=O)(=O)c1ccc(CC(=O)Nc2ccc(C(=O)C(C)(C)c3ccc(F)cc3)nc2)cc1 [Compound I-4]	0.001 to 0.01 µM
CCS(=O)(=O)c1ccc(CC(=O)Nc2ccc(C(=O)C(C)(C)c3ccc(Br)cc3)nc2)cc1 [Compound I-5]	0.001 to 0.01 µM
CCS(=O)(=O)c1ccc(CC(=O)Nc2ccc(C(=O)C(C)(C)c3ccc(F)c(Cl)c3)nc2)cc1 [Compound I-6, N-(6-(2-(3-chloro-4-fluorophenyl)-2-methylpropionyl)pyridin-3-yl)-2-(4-(ethylsulfonyl)phenyl) acetamide]	0.001 to 0.01 µM
CCS(=O)(=O)c1ccc(CC(=O)Nc2ccc(C(=O)C(C)(C)c3cccnc3)nc2)cc1 [Compound I-7, 2-(4-(ethylsulfonyl)phenyl)-N-(6-(2-methyl-2-(pyridin-3-yl)propanoyl)pyridin-3-yl)acetamide]	0.01 to 0.05 µM
CCS(=O)(=O)c1ccc(CC(=O)Nc2ccc(C(=O)C3(c4ccc(Cl)cc4)CCC3)nc2)cc1 [Compound I-8, N-(6-(1-(4-chlorophenyl)cyclobutane-1-carbonyl)pyridin-3-yl)-2-(4-(ethylsulfonyl)phenyl)acetamide]	0.001 to 0.01 µM
CCS(=O)(=O)c1ccc(CC(=O)Nc2ccc(C(=O)C(C)(C)c3cccc(C#N)c3)nc2)cc1 [Compound I-9, N-[6-[2-(3-cyanophenyl)-2-methylpropionyl]-3-pyridyl]-2-(4-ethylsulfonylphenyl)acetamide]	0.001 to 0.01 µM
CCS(=O)(=O)c1ccc(CC(=O)Nc2ccc(C(=O)C(C)(C)c3cccc(Br)c3)nc2)cc1 [Compound I-10, N-[6-[2-(3-bromophenyl)-2-methylpropionyl]-3-pyridyl]-2-(4-ethylsulfonylphenyl)acetamide]	0.001 to 0.01 µM
CCS(=O)(=O)c1ccc(CC(=O)Nc2ccc(C(=O)C3(c4ccc(Cl)cc4)CC3)nc2)cc1 [Compound I-11, N-(6-(1-(4-chlorophenyl)cyclopropane-1-carbonyl)pyridin-3-yl)-2-(4-(ethylsulfonyl)phenyl)acetamide]	0.001 to 0.01 µM
CCS(=O)(=O)c1ccc(CC(=O)Nc2ccc(C(=O)C(C)(C)c3ccc(F)cc3F)nc2)cc1 [Compound I-12, N-(6-(2-(2,4-difluorophenyl)-2-methylpropionyl)pyridin-3-yl)-2-(4-(ethylsulfonyl)phenyl)acetamide]	0.001 to 0.01 µM
CCS(=O)(=O)c1ccc(CC(=O)Nc2ccc(C(=O)C(C)(C)c3ccc(C(F)(F)F)cc3)nc2)cc1 [Compound I-13]	0.001 to 0.01 µM
CCS(=O)(=O)c1ccc(CC(=O)Nc2ccc(C(=O)C(C)c3ccc(Cl)cc3)nc2)cc1 (centres unmarked) [Compound I-14, N-(6-(2-(4-chlorophenyl)propionyl)pyridin-3-yl)-2-(4-(ethylsulfonyl)phenyl)acetamide]	0.001 to 0.01 µM
CCS(=O)(=O)c1ccc(CC(=O)Nc2ccc(C(=O)C(C)(C)c3ccc(F)c(Br)c3)nc2)cc1 [Compound I-15]	0.001 to 0.01 µM
CCS(=O)(=O)c1ccc(CC(=O)Nc2ccc(C(=O)C(C)(C)c3ccncc3)nc2)cc1 [Compound I-19]	0.001 to 0.01 µM
CCS(=O)(=O)c1ccc(CC(=O)Nc2ccc(C(=O)C(C)(C)c3ccccn3)nc2)cc1 [Compound I-20, 2-(4-(ethylsulfonyl)phenyl)-N-(6-(2-methyl-2-(pyridin-2-yl)propanoyl)pyridin-3-yl)acetamide]	0.01 to 0.05 µM
CCS(=O)(=O)c1ccc(CC(=O)Nc2ccc(C(=O)C(C)(C)c3cnn(C)c3)nc2)cc1 [Compound I-23, 2-(4-(ethylsulfonyl)phenyl)-N-(6-(2-methyl-2-(1-methyl-1H-pyrazol-4-yl)propionyl)pyridin-3-yl)acetamide]	0.01 to 0.05 µM
CCS(=O)(=O)c1ccc(CC(=O)Nc2ccc(C(=O)C(C)(C)c3ccc(Cl)cc3)nc2)nc1 [Compound I-24, N-(6-(2-(4-chlorophenyl)-2-methylpropionyl)pyridin-3-yl)-2-(5-(ethylsulfonyl)pyridin-2-yl)acetamide]	0.01 to 0.05 µM
CCS(=O)(=O)c1ccc(CC(=O)Nc2ccc(C(=O)C(C)(C)c3ccc(C(F)(F)F)cn3)nc2)cc1 [Compound I-25, 2-(4-(ethylsulfonyl)phenyl)-N-(6-(2-methyl-2-(5-(trifluoromethyl)pyridin-2-yl)propionyl)pyridin-3-yl)acetamide]	0.001 to 0.01 µM
CCS(=O)(=O)c1ccc(CC(=O)Nc2ccc(C(=O)C(C)(C)c3ccc(F)c(Cl)c3)nc2)nc1 [Compound I-26, N-(6-(2-(3-chloro-4-fluorophenyl)-2-methylpropionyl)pyridin-3-yl)-2-(5-(ethylsulfonyl)pyridin-2-yl)acetamide]	0.001 to 0.01 µM

The next lines start with the values.

IC50	Compound
0.001 to 0.01 µM	CCS(=O)(=O)c1ccc(CC(=O)Nc2ccc(C(=O)C(C)(C)c3cc(Cl)cc(C#N)c3)nc2)cc1 [Compound I-27, N-(6-(2-(3-chloro-5-cyanophenyl)-2-methylpropionyl)pyridin-3-yl)-2-(4-(ethylsulfonyl)phenyl) acetamide]
0.01 to 0.05 µM	CCS(=O)(=O)c1ccc(CC(=O)Nc2ccc(C(=O)C(C)(C)c3ccc(F)cn3)nc2)cc1 [Compound I-28]
0.001 to 0.01 µM	CCS(=O)(=O)c1ccc(CC(=O)Nc2ccc(C(=O)C(C)(C)c3ccnc(C)c3)nc2)cc1 [Compound I-29]
0.001 to 0.01 µM	CCS(=O)(=O)c1ccc(CC(=O)Nc2ccc(C(=O)C(C)(C)c3ccc(C)cn3)nc2)cc1 [Compound I-30]
0.001 to 0.01 µM	CCS(=O)(=O)c1ccc(CC(=O)Nc2ccc(C(=O)C(C)(C)c3ccc(Cl)cn3)nc2)cc1 [Compound I-31]
0.01 to 0.05 µM	CCS(=O)(=O)c1ccc(CC(=O)Nc2ccc(C(=O)C(C)(C)c3cncc(Cl)c3)nc2)cc1 [Compound I-32, N-(6-(2-(5-chloropyridin-3-yl)-2-methylpropionyl)pyridin-3-yl)-2-(4-(ethylsulfonyl)phenyl)acetamide]
0.01 to 0.05 µM	CCS(=O)(=O)c1ccc(CC(=O)Nc2ccc(C(=O)C(C)(C)c3cnn(CC(F)(F)F)c3)nc2)cc1 [Compound I-33, 2-(4-(ethylsulfonyl)phenyl)-N-(6-(2-methyl-2-(1-(2,2,2-trifluoroethyl)-1H-pyrazol-4-yl)propionyl)pyridin-3-yl)acetamide]
0.1 to 1 µM	CCS(=O)(=O)c1ccc(CC(=O)Nc2ccc(C(=O)C(C)(C)c3cnn(CC(F)F)c3)nc2)cc1 [Compound I-34]
0.001 to 0.01 µM	CCS(=O)(=O)c1ccc(CC(=O)Nc2ccc(C(=O)C3(c4ccc(Cl)cc4)CC(F)(F)C3)nc2)cc1 [Compound I-35]
0.01 to 0.05 µM	CCS(=O)(=O)c1ccc(CC(=O)Nc2ccc(C(=O)C(C)(C)c3nccs3)nc2)cc1 [Compound I-36]
0.1 to 1 µM	CCS(=O)(=O)c1ccc(CC(=O)Nc2ccc(C(=O)C(C)(C)n3cc(C)cn3)nc2)cc1 [Compound I-37]
